Patent US20160045505A1, “COMPOUNDS AND COMPOSITIONS FOR THE TREATMENT OF PARASITIC DISEASES” (NOVARTIS AG, priority 2013, published 2016)
Read-outs that look alike come from different tables or passages of the source.

Columns and labels:
[1] = test system: Trypanosoma cruzi amastigotes (Tulahuen strain expressing Lac-Z) cultured in 3T3 fibroblast cells; test: microbe, parasite or virus in culture; assay type: cell-based; settings: Trypanosoma cruzi, TULAHUEN, Fibroblast, T. cruzi amastigotes in 3T3 fibroblast cells, read-out: T cruzi EC50
[2] = test system: L. donovani HU3 strain in mouse peritoneal macrophages; test: Assay for proliferation of Leishmania parasites in infected mouse peritoneal macrophages (SybrGreen staining, high-content imaging, 5 days); assay type: cell-based, Leishmania donovani; settings: Leishmania donovani, Peritoneal macrophage, L. donovani in mouse peritoneal macrophages, read-out: L. donovani Macrophage EC50
[3] = test system: Trypanosoma brucei Lister 427 strain, bloodstream form; test: Assay for proliferation of kinetoplastid parasite Trypanosoma brucei (Cell Titer Glo, 48 hours); assay type: cell-based; settings: Trypanosoma brucei, read-out: T. brucei EC50
Procedure, shortened: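 Bloodstream-form T. brucei Lister 427 in HMI-9 medium was exposed to compound (DMSO vehicle) for 48 hours at 37° C, 5% CO2. Parasite growth was read as ATP by CellTiter-Glo luminescence, with EC50 calculated from percent inhibition.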

[4] = test system: Leishmania donovani axenic amastigote parasites; test: Leishmania donovani axenic amastigote proliferation assay (Cell TiterGlo luminescence, 2 day incubation); assay type: cell-based; settings: Leishmania donovani, read-out: L. donovani amastigotes EC50
[5] = T. brucei Lister 427 bloodstream form
[6] = T. brucei Lister 427 bloodstream form, inhibition of proliferation
[7] = axenic amastigotes, inhibition of proliferation

Row | SMILES | EC50 [1] [nM] | EC50 [2] [nM] | EC50 [3, 5] [nM] | EC50 ([4]; L. donovani axenic amastigotes) [nM] | EC50 ([1]; inhibition of proliferation) [nM] | EC50 ([2]; inhibition of proliferation) [nM] | EC50 [3, 6] [nM] | EC50 [4, 7] [nM] | EC50 [3] [nM]
1 | Cc1nc(C)c(C(=O)Nc2ccc(F)c(-c3cn4cc(N5CCC[C@@H]5C(F)(F)F)cnc4n3)c2)o1 [Compound 492] | 310 | 1520 | 472 | 841 |  |  |  |  | 
2 | Cc1nc(C)c(C(=O)Nc2ccc(F)c(-c3cn4cc(C5CCN(C(=O)OC(C)(C)C)CC5)cnc4n3)c2)o1 [Compound 425, tert-butyl 4-(2-(5-(2,4-dimethyloxazole-5-carboxamido)-2-fluorophenyl)imidazo[1,2-a]pyrimidin-6-yl)piperidine-1-carboxylate] | 50 | 198 | 97 | 140 |  |  |  |  | 
3 | CC(C)OC(=O)Nc1cnc2nc(-c3cc(NC(=O)c4nccs4)ccc3Cl)cn2c1 [Compound 243] |  |  |  |  | 150 | 2610 | 369 | 780 | 
4 | O=C(Nc1ccc(F)c(-c2cn3cc(C4=CCOCC4)cnc3n2)c1)N1CCC1 [Compound 322] |  |  |  |  | 76 | 157 | 20 | 43 | 
5 | Cc1nc(C)c(C(=O)Nc2ccc(F)c(-c3cn4cc(C5=CC(C)(C)OC(C)(C)C5)cnc4n3)c2)o1 [Compound 379] | 683 | 1680 | 1430 | 528 |  |  |  |  | 
6 | COc1cccnc1Nc1ccc(F)c(-c2cn3cc(NC(=O)OC(C)C)cnc3n2)c1 [Compound 498] | 1340 | 28000 | 478 | 849 |  |  |  |  | 
7 | CCC(C)OC(=O)Nc1cnc2nc(-c3cc(NC(=O)c4oc(C)nc4C)ccc3F)cn2c1 (stereo not shown) [Compound 309] |  |  |  |  | 275 | 204 | 132 | 109 | 
8 | CC(C)OC(=O)Nc1cnc2nc(-c3cc(-n4cn[nH]c4=O)ccc3Cl)cn2c1 [Compound 535] | > 20000 | > 35500 | 31100 | > 25000 |  |  |  |  | 
9 | CC(C)OC(=O)N(C)c1cnc2nc(-c3cc(NC(=O)c4ccco4)ccc3Cl)cn2c1 [Compound 561, isopropyl (2-(2-chloro-5-(furan-2-carboxamido)phenyl)imidazo[1,2-a]pyrimidin-6-yl)(methyl)carbamate] | 139 | 2140 | 286 | 740 |  |  |  |  | 
10 | CCC(=O)Nc1ccc(Cl)c(-c2cn3cc(NC(=O)OC(C)C)cnc3n2)c1 [Compound 247] |  |  |  |  | 575 | 3250 | 367 | 740 | 
11 | CC(C)OC(=O)Nc1cnc2nc(-c3cc(NC(=O)N4CCC[C@@H]4C(F)(F)F)ccc3Cl)cn2c1 [Compound 260] |  |  |  |  | 4550 | 3830 | > 50000 | > 25000 | 
12 | Cc1ccc(-c2cnc3nc(-c4cc(NC(=O)c5oc(C)nc5C)ccc4F)cn3c2)nc1 [Compound 445] | 14 | 688 | 31 | 12 |  |  |  |  | 
13 | CC(C)OC(=O)Nc1cnc2nc(-c3cc(NC(=O)C4CCC4)ccc3F)cn2c1 [Compound 102] |  |  |  |  | 464 | 1710 | 492 | 540 | 
14 | Cc1nc(C)c(C(=O)Nc2ccc(F)c(-c3cn4cc(NC(=O)OC5(C)CC5)cnc4n3)c2)o1 [Compound 312] |  |  |  |  | 441 | 139 | 54 | 120 | 
15 | Cc1csc(C(=O)Nc2cnc3nc(-c4cc(NC(=O)c5oc(C)nc5C)ccc4F)cn3c2)n1 [Compound 148] |  |  |  |  | 90 | 222 | 61 | 51 | 
16 | Cc1nc(C)c(C(=O)Nc2ccc(F)c(-c3cn4cc(C#CCCO)cnc4n3)c2)o1 [Compound 543, N-(4-fluoro-3-(6-(4-hydroxybut-1-yn-1-yl)imidazo[1,2-a]pyrimidin-2-yl)phenyl)-2,4-dimethyloxazole-5-carboxamide] | 882 | 759 | 134 | 212 |  |  |  |  | 
17 | O=C1CC(C(=O)Nc2cnc3nc(-c4cc(NC(=O)N5CCCC5)ccc4F)cn3c2)C1 [Compound 141] |  |  |  |  | > 20000 | 8280 | 1360 | 862 | 
18 | CC(C)OC(=O)Nc1cnc2nc(-c3cc(NC(=O)c4cnco4)ccc3Cl)cn2c1 [Compound 52] |  |  |  |  | 1280 | 2740 | 571 | 261 | 
19 | O=C(Nc1ccc(F)c(-c2cn3cc(C(F)(F)F)cnc3n2)c1)N1CC[C@H](F)C1 [Compound 297] |  |  |  |  | 37 | 223 | 51 | 52 | 
20 | O=C(Nc1cccc(-c2cn3cc(-c4ccccc4)cnc3n2)c1)N1CC[C@@H](F)C1 [Compound 337] |  |  |  |  | 68 | 195 | 24 | 72 | 

Row | SMILES | EC50 [1] [nM] | EC50 [2] [nM] | EC50 [3, 5] [nM] | EC50 ([4]; L. donovani axenic amastigotes) [nM] | EC50 ([1]; inhibition of proliferation) [nM] | EC50 ([2]; inhibition of proliferation) [nM] | EC50 [3, 6] [nM] | EC50 [4, 7] [nM] | EC50 [3] [nM]
21 | Cc1ncc(C(=O)Nc2cccc(-c3cn4cc(NC(=O)OC(C)C)cnc4n3)c2)o1 [Compound 202] |  |  |  |  | > 20000 | 2720 | 249 | 229 | 
22 | O=C(Nc1cnc2nc(-c3cc(NC(=O)N4CCCC4)ccc3F)cn2c1)C1COCCO1 (stereo not shown) [Compound 143] |  |  |  |  | 7910 | 1400 | 159 | 478 | 
23 | Cc1nc(C)c(C(=O)Nc2ccc(F)c(-c3cn4cc(-c5ccc(F)cc5)cnc4n3)c2)o1 [Compound 396] | 17 | 88 | 42 | 55 |  |  |  |  | 
24 | Cc1nc(C)c(C(=O)Nc2ccc(F)c(-c3cn4cc(NC(=O)[C@@H]5CCCO5)cnc4n3)c2)o1 [Compound 161] |  |  |  |  | 2540 | 655 | 170 | 206 | 
25 | Cc1nc(C)c(C(=O)Nc2ccc(F)c(-c3cn4cc(Cl)cnc4n3)c2)o1 [Compound 205] |  |  |  |  | 413 | 1240 | 352 | 300 | 
26 | Cc1nc(C)c(C(=O)Nc2ccc(F)c(-c3nc4ncc(-c5ccccc5)cn4c3F)c2)o1 [Compound 338] |  |  |  |  | 18 | 101 | 40 | 47 | 
27 | CC1(C(=O)Nc2cnc3nc(-c4cc(NC(=O)N5CCCC5)ccc4F)cn3c2)CC1 [Compound 133] |  |  |  |  | 1840 | 607 | 19 | 97 | 
28 | CC(C)CN(C)C(=O)Nc1ccc(Cl)c(-c2cn3cc(NC(=O)OC(C)C)cnc3n2)c1 [Compound 249] |  |  |  |  | 1340 | 5550 |  | 3370 | 4070
29 | Cc1nc(C)c(C(=O)Nc2ccc(F)c(-c3cn4cc(-c5cnccc5C)cnc4n3)c2)o1 [Compound 442] | 48 | 208 | 55 | 87 |  |  |  |  | 
30 | Cc1nc(C)c(C(=O)Nc2ccc(F)c(-c3cn4cc(NC(=O)C5CNCCO5)cnc4n3)c2)o1 (stereo not shown) [Compound 179] |  |  |  |  | > 20000 | > 45800 | 6960 | > 25000 | 
31 | Cc1nc(C)c(C(=O)Nc2ccc(F)c(-c3cn4cc(-c5ccc[nH]5)cnc4n3)c2)o1 [Compound 573] | 462 | 168 | 107 | 155 |  |  |  |  | 
32 | CC(C)OC(=O)Nc1cnc2nc(-c3cc(NC(=O)c4nccs4)ccc3F)cn2c1 [Compound 242] |  |  |  |  | 198 | 2200 | 477 | 687 | 
33 | O=C(Nc1cnc2nc(-c3cc(NC(=O)N4CCCC4)ccc3F)cn2c1)C1CCCN1 (stereo not shown) [Compound 121] |  |  |  |  | > 20000 | > 50000 | 3950 | 23100 | 
34 | Cc1nc(C)c(C(=O)Nc2ccc(F)c(-c3cn4cc(NC5=NCC(C)(C)N5)cnc4n3)c2)o1 [Compound 509] | > 20000 | > 50000 | 10400 | > 25000 |  |  |  |  | 
35 | [2H]C([2H])([2H])N(C(=O)Nc1ccc(F)c(-c2cn3cc(C4CC4)cnc3n2)c1)C([2H])([2H])[2H] [Compound 606] | 380 | 3200 | 267 | 545 |  |  |  |  | 
36 | Cc1nc(C)c(C(=O)Nc2ccc(F)c(-c3cn4cc(NCc5ncc[nH]5)cnc4n3)c2)o1 [Compound 479] | > 20000 | > 50000 | 41900 | > 22800 |  |  |  |  | 
37 | Cc1ncc(C(=O)Nc2cnc3nc(-c4cc(NC(=O)N5CCCC5)ccc4F)cn3c2)o1 [Compound 132] |  |  |  |  | > 13800 | > 50000 | 1550 | 2870 | 
38 | Cc1nc(C)c(C(=O)Nc2ccc(F)c(-c3cn4cc(-c5cccc(N6CCN(C(=O)OC(C)(C)C)CC6)n5)cnc4n3)c2)o1 [Compound 368] |  |  |  |  | 135 | 905 | 498 | 463 | 
39 | Cc1nc(C)c(C(=O)Nc2ccc(F)c(-c3cn4cc(OC(C)C)cnc4n3)c2)o1 [Compound 608, N-(4-fluoro-3-(6-isopropoxyimidazo[1,2-a]pyrimidin-2-yl)phenyl)-2,4-dimethyloxazole-5-carboxamide] | 132 | 456 | 159 | 127 |  |  |  |  | 
40 | CCNc1cnc2nc(-c3cc(NC(=O)c4oc(C)nc4C)ccc3F)cn2c1 [Compound 582, N-(3-(6-(ethylamino)imidazo[1,2-a]pyrimidin-2-yl)-4-fluorophenyl)-2,4-dimethyloxazole-5-carboxamide] | 466 | 928 | 476 | 585 |  |  |  |  | 
